Results: patent publication US20130337564A1, “Treatment of Pluripotent Cells” (Janssen Biotech, Inc., priority 2012, published 2013)

Assays:
Assay type in all cases: cell-based
[1] = test system: HNF-3beta expression in human embryonic stem cells (H9 line); assay: High content screening assay: HNF-3beta protein expression (differentiation); settings: for fold induction at 10 µM: Homo sapiens, Embryonic stem cell, 10 μM test compound with 100 ng/ml activin A on days 1-2, H9, total intensity by IN Cell Analyzer, strong and moderate hits, read-out: HNF3β Expression, Fold over Wnt 3a/AA control
How it was run: (§1)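 H9 hESCs on MATRIGEL treated days 1-2 with 10 μM compound in DMEM:F12, 0.5% FCS, 100 ng/ml activin A; days 3-4 with 2% FCS plus activin A without compound. Fixed cells immunostained for Sox17 or HNF-3beta with Draq5 nuclear counterstain. Cell number and staining intensity quantified by high-content imaging, 12 fields/well.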

[2] = test system: Sox17 expression in human embryonic stem cells (H9 line); assay: High content screening assay: Sox17 protein expression (differentiation); settings: for fold induction at 10 µM: Homo sapiens, Embryonic stem cell, 10 μM test compound with 100 ng/ml activin A on days 1-2, H9, total intensity by IN Cell Analyzer, strong and moderate hits, read-out: SOX17 Expression, Fold over Wnt 3a/AA control
How it was run: as §1

[3] = test system: human embryonic stem cells (H9 or H1 lines); assay: Plate reader (MTS) proliferation assay; settings: for activity at 10 µM: Homo sapiens, Embryonic stem cell, 96 h, 10 μM test compound with 100 ng/ml activin A on days 1-2, MTS OD490 on day 4, vs Activin A/Wnt3a positive control, strong and moderate hits; for Average: average of replicate raw data
How it was run: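 H9 or H1 cells on Matrigel, washed, then given DMEM:F12 with 0.5% FCS, 100 ng/ml activin A and 10 μM compound (days 1–2), then 2% FCS plus activin A (days 3–4). MTS added day 4, OD490 read after 1.5–4 h at 37 °C; triplicates as percent of activin A/Wnt3a control.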

[4] = test system: human embryonic stem cells (H9 line); assay: High content screening assay: cell number (proliferative response); settings: for fold induction at 10 µM: Homo sapiens, Embryonic stem cell, 10 μM test compound with 100 ng/ml activin A on days 1-2, H9, total cell number by IN Cell Analyzer, strong and moderate hits, read-out: Proliferative Response, Fold over Wnt 3a/AA control
How it was run: as §1

[5] = cell number in the wells analysed for HNF-3b expression
[6] = cell number in the wells analysed for SOX-17 expression

Structure (SMILES)	fold induction at 10 µM [1]	HNF-3b Expression Total Intensity [1]	fold induction at 10 µM [2]	SOX-17 Expression Total Intensity [2]	activity at 10 µM [3] [%]	Average [3]	fold induction at 10 µM [4]	Proliferative Response Total cells [4, 5]	Proliferative Response Total cells [4, 6]	Average (of Raw Data) ([3]; plate reader raw signal, mean of replicate wells, proliferation of human embryonic stem cells)
O=C1NC(=O)C(c2cn(-c3cccnc3)c3ccccc23)=C1c1cn(CCO)c2ccccc12 [Compound 206, 3-[1-(2-Hydroxyethyl)-1H-indol-3-yl]-4-(1-pyridin-3-yl-1H-indol-3-yl)-1H-pyrrole-2,5-dione]	1.66	309900000	1.74	223646667	108	1.7251	1.42	10331	11886	
Cn1ccc(C2=C(c3cn(CCCO)c4ncccc34)C(=O)NC2=O)n1 [Compound 209]	0.772	143916667	0.628	80676667	67.4	1.0739		4209	2473	
COc1ccccc1C1=C(c2cn(-c3cccnc3)c3ccccc23)C(=O)NC1=O [Compound 216, 3-[2-(Methyloxy)phenyl]-4-(1-pyridin-3-yl-1H-indol-3-yl)-1H-pyrrole-2,5-dione]		306520000		252690000	76.9	1.1235		8479	5991	
Cc1c[nH]c(-c2cnc(NCCNc3ccc(C#N)cn3)nc2-c2ccc(Cl)cc2Cl)n1 [Compound 221, 6-[(2-{[4-(2,4-Dichlorophenyl)-5-(4-methyl-1H-imidazol-2-yl)pyrimidin-2-yl]amino}ethyl)amino]pyridine-3-carbonitrile]	1.16	1281000000	1.12	1089750000	131	1.8228	1.38	21203	21070	0.4291
CC(C)(O)CCn1nc(C2=C(c3cn(-c4cccnc4)c4ccccc34)C(=O)NC2=O)c2ccccc21 [Compound 223, 3-[1-(3-Hydroxy-3-methylbutyl)-1H-indazol-3-yl]-4-(1-pyridin-3-yl-1H-indol-3-yl)-1H-pyrrole-2,5-dione]		540725000	1.04	1013360000	129	1.7982	0.948	9871	14529	
O=C1NC(=O)C(c2nn(CCO)c3ccccc23)=C1c1cn(-c2cncnc2)c2ccccc12 [Compound 226, 3-[1-(2-Hydroxyethyl)-1H-indazol-3-yl]-4-(1-pyrimidin-5-yl-1H-indol-3-yl)-1H-pyrrole-2,5-dione]		329425000	0.589	572520000	120	1.6825	0.634	7650	9716	
O=C1NC(=O)C(c2cn(-c3cncnc3)c3ccccc23)=C1c1cn(CCO)c2ccccc12 [Compound 230, 3-[1-(2-Hydroxyethyl)-1H-indol-3-yl]-4-(1-pyrimidin-5-yl-1H-indol-3-yl)-1H-pyrrole-2,5-dione]	0.95	1052345000	1.14	1104750000	147	2.0358	1.31	16884	20079	
Cn1cc(C2=C(c3nn(CCCn4ccnc4)c4ccccc34)C(=O)NC2=O)c2cc(Cl)ccc21 [Compound 231, 3-(5-Chloro-1-methyl-1H-indol-3-yl)-4-{1-[3-(1H-imidazol-1-yl)propyl]-1H-indazol-3-yl}-1H-pyrrole-2,5-dione]		547055000	0.811	789085000	114	1.6020	0.9	11369	13789	
Cn1cc(C2=C(c3nn(CCCn4ccnn4)c4ccccc34)C(=O)NC2=O)c2cc(Cl)ccc21 [Compound 232, 3-(5-Chloro-1-methyl-1H-indol-3-yl)-4-{1-[3-(1H-1,2,3-triazol-1-yl)propyl]-1H-indazol-3-yl}-1H-pyrrole-2,5-dione]	0.771	854325000	1.07	1045395000	132	1.8323	1.09	14950	16652	
O=C1NC(=O)C2=C1Nc1cccc(c1)OCCC/C=C\CCCOc1cccc2c1 [Compound 233, (11Z)-8,9,10,13,14,15-Hexahydro-2,6:17,21-di(metheno)pyrrolo[3,4-h][1,15,7]dioxazacyclotricosine-22,24(1H,23H)-dione]		109160000		327055000	93	1.3325		4357	6470	
